The values below come from patent US6180637A, “1,2,5-trisubstituted 1,2-dihydroindazol-3-ones having anti-asthmatic, anti-allergic, anti-inflammatory, immunomodulating and neuroprotective action, process for their preparation and their use as medicaments” (Arzneimittelwerk Dresden GmbH, priority 1998, dated 2001).

In assay [1] the test system is pulmonary eosinophil infiltration. Nature of the assay: Inhibition of late-phase eosinophilia 24 h after inhalational ovalbumin challenge in actively sensitized guinea-pigs. Format: in vivo, guinea-pig. As to conditions: 2 × 30 mg/kg i.p. -2h/+4h, BAL 24 h after OVA challenge. As to the method: Inhibition of late-phase eosinophilia 24 h after inhalational ovalbumin challenge in actively sensitized guinea-pigs
The inhibition of pulmonary eosinophil infiltration by the substances is tested in an in vivo test on male Dunkin-Hartley guinea-pigs (200-250 g) sensitized against ovalbumin (OVA). The sensitization is carried out by means of two intraperitoneal injections of a suspension of 20 μg of OVA together with 20 mg of aluminium hydroxide as an adjuvant in 0.5 ml of physiological saline solution per animal on two successive days. 14 days after the second injection, the animals are pretreated with mepyramine maleate (10 mg/kg i.p.) in order to protect them from anaphylactic death. 30 minutes later, the animals are exposed for 30 sec in a plastic box to an OVA aerosol (0.5 mg/ml) which is generated by a nebulizer driven by compressed air (19.6 kPa) (allergen challenge). Control animals are nebulized with physiological saline solution. […] The eosinophils are stained using the Becton-Dickinson test kit (N. 5877) for eosinophils and counted in a Neubauer chamber. […]
The percentage inhibition of the eosinophilia of the test group treated with substance is calculated according to the following formula: […]

In a further assay the target is human cyclophilin B (Homo sapiens, UniProt P23284). Nature of the assay: Peptidylprolyl isomerase (PPIase) activity inhibition assay. The assay is classed as biochemical. As to conditions: 10 μM compound; 10 nmol Cyp B, preincubated at 4° C. for 15 minutes; test peptide Suc-Ala-Ala-Pro-Phe-Nan. As to the method: For the initial screening (10 μmol/l), the inhibition of the human cyclophilin B in the PPIase test is determined.
human cyclophilin B, sequence (P23284 34-216): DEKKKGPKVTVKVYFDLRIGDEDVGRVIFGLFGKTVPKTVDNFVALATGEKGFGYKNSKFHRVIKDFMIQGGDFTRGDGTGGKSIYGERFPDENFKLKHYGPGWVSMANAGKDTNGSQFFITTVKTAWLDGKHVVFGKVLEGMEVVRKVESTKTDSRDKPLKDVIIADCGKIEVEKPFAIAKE
Assay for the determination of the peptidylprolyl isomerase (PPIase) activity and inhibition
The PPIase activity is tested according to a globally customary enzyme test: G. Fischer, H. Bang, C. Mech, Biomed. Biochim. Acta 43 1101-1111; G. Fischer, H. Bang, A. Schellenberger, Biochim. Biophys. Acta 791 (1984), 87-97; D. H. Rich et al., J. Med. Chem. 38 (1995), 4164-4170.
The compounds of the general formula I according to the invention are preincubated at 4° C. for 15 minutes together with 10 nmol of Cyp B. The enzyme reaction is started using the test peptide Suc-Ala-Ala-Pro-Phe-Nan after addition of chymotrypsin and HEPES buffer. The extinction change at 390 nm is then monitored and evaluated. The photometrically determined extinction change results from two sub-reactions: a) the rapid chymotryptic cleavage of the trans-peptide; b) the non-enzymatic cis-trans isomerization, which is catalysed by cyclophilins.

One may read the inhibition as the change of the read-out against control, counted positive when it falls. Read a high inhibition as a strong effect. Take `COc1ccc(S(=O)(=O)n2c3ccc(OC)cc3c(=O)n2Cc2cc([N+](=O)[O-])ccc2O)cc1` [Example 1, 2-(2-Hydroxy-5-nitrobenzyl)-5-methoxy-1-(4-methoxybenzenesulphonyl)-1,2-dihydroindazol-3-one]: in assay [1] (OVA-sensitized guinea-pigs), the “Inhibition [%] of eosinophilia” value worked out at 97%. Moreover, the “Eosinophils million/animal x ± s, B” value in assay [1] (group B (test group treated with substance)) worked out at 0.51 ± 0.25 million/animal. The inhibition at 10 µM at human cyclophilin B was 70%.

The compound `COc1ccc2c(c1)c(=O)n(Cc1cc([N+](=O)[O-])ccc1O)n2S(=O)(=O)c1ccc(C)cc1` [Example 2, 2-(2-hydroxy-5-nitrobenzyl)-5-methoxy-1-(toluene-4-sulphonyl)-1,2-dihydroindazol-3-one] showed an inhibition at 10 µM against human cyclophilin B of 50%.

`COc1ccc2c(c1)c(=O)n(Cc1cc([N+](=O)[O-])ccc1O)n2S(=O)(=O)c1ccc(OC(F)(F)F)cc1` [Example 3, 2-(2-hydroxy-5-nitrobenzyl)-5-methoxy-1-(4-trifluoro-methoxybenzenesulphonyl)-1,2-dihydroindazol-3-one] showed an inhibition at 10 µM on human cyclophilin B of 93%.

For the compound `COc1ccc2c(c1)c(=O)n(Cc1cc([N+](=O)[O-])ccc1O)n2S(=O)(=O)c1ccc(Cl)cc1` [Example 4, 2-(2-hydroxy-5-nitrobenzyl)-5-methoxy-1-(4-chloro-benzenesulphonyl)-1,2-dihydroindazol-3-one], the inhibition at 10 µM against human cyclophilin B turned out to be 90%.

At human cyclophilin B, `COc1ccc2c(c1)c(=O)n(Cc1cc([N+](=O)[O-])ccc1O)n2S(=O)(=O)c1ccc(F)cc1` [Example 5, 1-(4-fluorobenzenesulphonyl)-2-(2-hydroxy-5-nitrobenzyl)-5-methoxy-1,2-dihydroindazol-3-one] returned an inhibition at 10 µM of 67%.

Compound `CSc1ccc2c(c1)c(=O)n(Cc1cc([N+](=O)[O-])ccc1O)n2Cc1ccc(Cl)c(Cl)c1` [Example 26, 1-(3,4-Dichlorobenzyl)-2-(2-hydroxy-5-nitrobenzyl)-5-methylthio-1,2-dihydroindazol-3-one hydrate] displayed an inhibition at 10 µM against human cyclophilin B of 98%.
